# Tests used:
# Type in all cases: cell-based
# CFSC (rat HSC cell line) = assay: [3H]-thymidine incorporation, de-novo DNA synthesis; parameters: proliferative effect of reconstituted CVI after denaturation and refolding: dose or concentration left out as unconfirmed
# Description: Immediately before use, guanidine hydrochloride (6 mol/l) was cleared over night by activated charcoal (Merck, Darmstadt, Germany) and adjusted to pH 8.0 by adding 50 mmol/l tris(hydroxymethyl)aminomethane (Tris). Freeze dried CVI (10 mg/ml) was mixed with 1 ml Tris-buffered guanidine-hydrochloride, incubated at room temperature for 1 h with frequent thorough vortex followed by 1 h at 37°C. The buffer from the clear supernatant after centrifugation (10.000 x g, 10 min, 4°C) was replaced for 150 mmol/l HAc by gelfiltration (Sephadex-G25; GE Healthcare, Munich, Germany). This procedure regains the biological activity of CVI on CFSC (S1 Fig).
# 5x10^3CFSC in 100 μl 10% FBS were seeded into a 96-well flat-bottom tissue culture plate (Nunc, Roskilde, Denmark). After 24 hours, medium was completely removed, and cells were rinsed with 200 μl phosphate-buffered saline and 100 μl standard medium containing only 0.25% FBS were added. Cells were cultured for additional 24 h prior to treatment. Synchronized microcultures in 96-well plates were treated for 2 hours in reduction medium. […] [^3H]-thymidine incorporation was measured as described before. […] After neutralization with 800 mmol/l HCl, lysates were collected to a glassfibre mat and the de-novo DNA synthesis was assessed by liquid scintillation (LKB Wallac, Bromma, Sweden) and the radioactive decay was counted (for) a minute (cpm).
# primary rat HSCs = assay: Spreading and survival after serum withdrawal, phase contrast microscopy; details: within 24 h; medium lacking FBS; 30 μg/ml collagen; three independent experiments
# Description: Activated HSC (third passage) were serum starved for 24 h in standard medium without FBS (starving medium), followed by dissociation with 500 μl 0.05% trypsin-EDTA (Biochrom, Berlin, Germany) and neutralization with 30 ml starving medium containing 1 g/l soybean trypsin inhibitor and 1 g/l ovalbumin. Alternatively, cells were scraped carefully with a cell-scraper (Costar, Cambridge, MA, USA) to exclude any potential effect of trypsin. […] For quantification of spreading, cells that had attached were counted 12 hours after plating and spreading efficiency was determined as percentage of plated cells in each group. De-novo DNA synthesis and apoptosis were assessed by morphological criteria, Cell death detection ELISA and FACS analysis as described below. […] After blocking the cells 1h with DMEM+1% FBS, the cells were incubated with primary antibodies against a-actin (Sigma-Aldrich, Taufkirchen, Germany, #A2547; dilution 1:200) and GFAP (Sigma-Aldrich, #G9269; dilution 1:20) followed by a washing step with PBS and the incubation with fluorescence-labeled secondary antibodies (Alexa Fluor 546 & Alexa Fluor 488, Molecular Probes, Eugene, USA, #A11030 & #A11034; dilution 1:100). […]
# primary rat HSC = assay: FACS analysis of apoptosis (propidium iodide DNA content)
# Description: Activated HSC (third passage) were serum starved for 24 h in standard medium without FBS (starving medium), followed by dissociation with 500 μl 0.05% trypsin-EDTA (Biochrom, Berlin, Germany) and neutralization with 30 ml starving medium containing 1 g/l soybean trypsin inhibitor and 1 g/l ovalbumin. Alternatively, cells were scraped carefully with a cell-scraper (Costar, Cambridge, MA, USA) to exclude any potential effect of trypsin. After centrifugation at 800 x g for 10 min, cells were washed twice with 20 ml PBS (w/o Ca^2+, Mg^2+; Biochrom, Berlin, Germany), resuspended in starving medium and plated at a density of 1.5-2x10^6 in 1.7 ml starving medium in 6-well plates (NUNC, Wiesbaden, Germany). Cells were then treated with starving medium, soluble CI or CVI (both at a final concentration of 30 mg/l), or 10% FBS. For quantification of spreading, cells that had attached were counted 12 hours after plating and spreading efficiency was determined as percentage of plated cells in each group. De-novo DNA synthesis and apoptosis were assessed by morphological criteria, Cell death detection ELISA and FACS analysis as described below. […] After blocking the cells 1h with DMEM+1% FBS, the cells were incubated with primary antibodies against a-actin (Sigma-Aldrich, Taufkirchen, Germany, #A2547; dilution 1:200) and GFAP (Sigma-Aldrich, #G9269; dilution 1:20) followed by a washing step with PBS and the incubation with fluorescence-labeled secondary antibodies (Alexa Fluor 546 & Alexa Fluor 488, Molecular Probes, Eugene, USA, #A11030 & #A11034; dilution 1:100). […] Cells were analyzed by fluorescence microscopy (Zeiss, Jena, Germany; Kodak Ektachrome P1600 and a quantitative staining analysis was performed using Image J software (version 1.50i; National Institutes of Health, Bethesda, […], USA).
# 10^5 of freshly set cells were treated with starving medium, CI, CVI or 10% FBS for 24 or 48 hours as described before. […] Fixed cells were stained with propidium iodide (50 mg/l) in a final volume of 1 ml before being subjected to fluorescence activated cell sorting (FACS) analysis.
substance,measurement,setting,value
"CVI: Human collagen VI isolated from placentas by pepsin digestion; triple helical, soluble",de-novo DNA synthesis ([3H]-thymidine incorporation),"CFSC (rat HSC cell line); 24 h, n = three independent experiments",induced a comparable increase in de-novo DNA synthesis
same,proliferative effect of reconstituted CVI after denaturation and refolding,CFSC (rat HSC cell line); three independent experiments (S1 Fig),regains its biological activity
same,"suppression of growth factor withdrawal-induced apoptosis (attachment, cell shrinkage)",primary rat HSCs,potently suppressed
same,fold less apoptosis compared to the CI-treated group,"primary rat HSC; FACS, CVI-treated versus CI-treated group, p<0.05",approximately 3 fold
same,percentage of apoptotic cells (FACS),"primary rat HSC; serum-starved primary rat HSC, text: within 24 hours, Fig 1C legend: 48 h, propidium iodide, three independent experiments",25%

# Source: paper PMC8412337, “Alpha-single chains of collagen type VI inhibit the fibrogenic effects of triple helical collagen VI in hepatic stellate cells” (PLoS ONE, 2021)
